Measured values as given in article PMC11053681, “Gold(I) and Silver(I) Complexes Containing Hybrid Sulfonamide/Thiourea Ligands as Potential Leishmanicidal Agents” (Pharmaceutics, 2024).
“Also recorded” adds a separate entry of the source. Where two headings read alike, the source gives them in different places.

How the values were obtained:
Vero cells = test: Cytotoxicity assay on Vero cells (resazurin); format: cell-based, African green monkey; conditions: 24 h treatment
Protocol: (§1) For the experiment, Vero cells (ATCC CRL-1587) were used in Roswell Parl Memorial Institute (RPMI) medium with 10% fetal bovine serum (FBS) (RPMI 10%) and 20 μg/mL of Gentamicin. They were cultivated in culture bottles of […] and kept in an oven at 37 °C with 5% carbon dioxide (CO2). When picked or used on the day of the experiment, the cells were detached from the wall of the bottles with saline and 1X trypsin/EDTA. To find out how many cells there were in the bottle, it was diluted in Turkey liquid and then we proceeded with the counting in the Neubauer Chamber to calculate the desired concentrations. The Vero cells were plated at […] cells per well, in 96-well plates, and kept in an incubator with 5% CO2 at 37 °C for 24 h. Then, the compounds were added in triplicate, starting at a concentration of 500 µM, with serial dilution being performed up to a concentration of 3.9 µM [54]. The treatment was carried out for 24 h, and, after adding 5 µL of resazurin, the fluorescence was read using a spectrofluorometer (EnSpire Perkin-Elmer, Waltham, MA, USA).

Leishmania infantum = test: Leishmanicidal activity against promastigotes (resazurin); format: cell-based; conditions: for IC50: promastigote form, 24 h treatment, resazurin, read-out: IC50 L. infantum; for SI L. infantum: selectivity index = CC50 (Vero) / IC50 (L. infantum promastigotes)
Protocol: (§2) The Leishmania infantum and Leishmania braziliensis strains were maintained in Schneider medium supplemented with 20% of SFB (Schneider 20%), cultivated in […] bottles and stored at 28 °C in a BOD oven. For the assays, parasites at the 5th day stationary growth phase were used.
(§3) The promastigotes metacyclic form of Leishmania infantum and Leishmania braziliensis were first filtered with an insulin syringe to break up rosettes and, then, were isolated from the culture in the stationary phase by centrifugation of 400× g for 4 min at a temperature of 4 °C [53]. The supernatant was subjected to a new centrifugation, heavier, of 2000× g for 30 min, also at 4 °C. The supernatant was discarded and the cell pallet formed from this centrifugation was resuspended in 10 mL of 10% Schneider medium. The process ensured the removal of cellular debris and dead parasites, as well as possible crystals from the culture medium, so that the quality of the experiment was guaranteed. Then, the promastigotes were diluted to 1:10 in paraformaldehyde (PFA) for counting in a Neubauer Chamber, with the concentrations adjusted for each experiment.
(§4) An amount of 1 × 10^7 parasites per well was used. The parasites were plated in 96-well plates. Then, the compounds were added in triplicate, starting at a concentration of 500 µM, with serial dilutions being performed up to a concentration of 3.9 µM [53]. The treatment was carried out for 24 h and, after adding 5 µL of resazurin, the fluorescence was read using a Enspire model spectrofluorometer (Perkin-Elmer, Waltham, MA, USA).

Leishmania braziliensis = test: as above; format: cell-based; conditions: for IC50: promastigote form, 24 h treatment, resazurin, read-out: IC50 L. braziliensis; for SI L. braziliensis: selectivity index = CC50 (Vero) / IC50 (L. braziliensis promastigotes)
Protocol: as §2, §3, §4

[1] = test system: RAW macrophages infected with Leishmania infantum; test: Infectivity test / infection rate in RAW macrophages; format: cell-based; conditions: three concentrations (below IC50, IC50, above IC50), 24 h treatment
Protocol: For the infection of RAW macrophages adhered to the plates, we used parasites in the promastigote form of Leishmania infantum, in the stationary phase, in a ratio of 10:1 (promastigotes/macrophages).
Macrophages were plated in the amount of 5 × 10^4 cells per well, in 96-well plates, which were kept in a CO2 oven at 37 °C for 24 h. The parasites were plated at a concentration of 10:1. The plates were kept in a CO2 oven for 12 h until the parasites infected the cells. […] Plates were fixed with paraformol for further evaluation. Plaques were evaluated by counting parasites within 200 cells under the EVOS Cell Imaging System (Thermo Scientific, Waltham, MA, USA) microscope by staining with propidium iodide.
In view of the data obtained, the six most promising compounds (HL1^Ch, HL2^Ph, Ag3, Ag4, Ag6 and Au2) were selected for carrying out the infection rate test against the L. infantum parasite. […] This test was performed at four stages. The first step determined the percentage of the amount in 200 infected macrophages per parasite, the second determined the percentage of parasites that infects 100 cells/macrophages, the third determined the average percentage of parasites that infects 200 cells/macrophages and, finally, the fourth step indicated the infection rate, that is, the result of the amount of Leishmania per macrophage (obtained from the third step) multiplied by the percentage of infected macrophages. Figure 5 presents the graphs of the infection rates, while the other graphs can be found in Figure S7.4.

[2] = Solubility in buffer for the fluorescence experiments; format: physicochemical; conditions: Tris-HCl buffer
Protocol: The compounds were solubilized in DMSO and then we made successive dilutions in a Tris-HCl 25 mmol L^−1 buffer, pH 8.0, containing 100 mmol L^−1 of NaCl. For all experiments, the final concentration of DMSO was kept constant and equal to 2.5%. Solutions with increasing concentrations of ligand and constant concentration of LbOYE (1 µmol L^−1) were prepared, which were kept at 25 °C for a period of 1h before acquisition of fluorescence emission spectra.
After the synthesis and structural characterization of the compounds, studies of interaction of the compounds and the recombinant LbOYE were carried out by fluorescence measurements.

[3] = Cytotoxicity assay on Vero cells (resazurin); format: cell-based, African green monkey; conditions: African green monkey, Vero cells (ATCC CRL-1587), 24 h treatment
Protocol: as §1

Structure (SMILES)	CC50 (Vero cells) [µM]	IC50 (Leishmania infantum) [µM]	SI L. infantum (Leishmania infantum)	IC50 (Leishmania braziliensis) [µM]	SI L. braziliensis (Leishmania braziliensis)	Infection rate of L. infantum in macrophages, in words [1]	Solubility in buffer at the concentrations for the fluorescence experiments, in words [2]	CC50 at 24 h [3] [µM]	IC50 (Leishmania infantum; Leishmania infantum) [µM]	IC50 (Leishmania braziliensis; Leishmania braziliensis) [µM]
Cc1ccc(S(=O)(=O)NNC(NC2CCCCC2)=[S][Ag+][S]=C(NNS(=O)(=O)c2ccc(C)cc2)NC2CCCCC2)cc1.O=[N+]([O-])[O-] [Ag1, [Ag(HL1^Ch)2]NO3]	7.4	57.42 ± 0.028	0.129	50.15 ± 0.02	0.15					
Cc1ccc(S(=O)(=O)NNC(Nc2ccccc2)=[S][Ag+][S]=C(NNS(=O)(=O)c2ccc(C)cc2)Nc2ccccc2)cc1.O=[N+]([O-])[O-] [Ag2, [Ag(HL2^Ph)2]NO3]	92.1	280.5 ± 0.167	0.33	183.7 ± 0.027	0.50					
Cc1ccc(S(=O)(=O)NNC(Nc2ccc(Cl)cc2)=[S][Ag+][S]=C(NNS(=O)(=O)c2ccc(C)cc2)Nc2ccc(Cl)cc2)cc1.O=[N+]([O-])[O-] [Ag4, [Ag(HL4^ClPh)2]NO3]	> 500	72.17 ± 0.036		84.62 ± 0.116	>5.91	did not show a promising infection rate				
Cc1ccc(S(=O)(=O)NNC(Nc2ccc([N+](=O)[O-])cc2)=[S][Ag+][S]=C(NNS(=O)(=O)c2ccc(C)cc2)Nc2ccc([N+](=O)[O-])cc2)cc1.O=[N+]([O-])[O-] [Ag5, [Ag(HL5^NO2Ph)2]NO3]	493	78.79 ± 0.091		90.73 ± 0.236	5.44					
C=CCNC(NNS(=O)(=O)c1ccc(C)cc1)=[S][Ag+][S]=C(NCC=C)NNS(=O)(=O)c1ccc(C)cc1.O=[N+]([O-])[O-] [Ag6, [Ag(HL6^Al)2]NO3]	> 500	78.59 ± 0.605	>6.36	305.2 ± 0.032	>1.64	able to inhibit the parasite infection inside the cells even at lower concentrations than that determined by their IC50 values; also recorded: able to inhibit the parasite infection even at lower concentrations than that of their IC50 values	not soluble in the buffer used for the experiment			
Cc1ccc(S(=O)(=O)NNC(Nc2ccccc2)=[S][Au+][S]=C(NNS(=O)(=O)c2ccc(C)cc2)Nc2ccccc2)cc1.[Cl-] [Au2, [Au(HL2^Ph)2]Cl]	296	41.69 ± 0.21	7.09	143.2 ± 0.085	2.06	able to inhibit the parasite infection inside the cells even at lower concentrations than that determined by their IC50 values; also recorded: able to inhibit the parasite infection even at lower concentrations than that of their IC50 values				
Cc1ccc(S(=O)(=O)NNC(Nc2ccc(F)cc2)=[S][Au+][S]=C(NNS(=O)(=O)c2ccc(C)cc2)Nc2ccc(F)cc2)cc1.[Cl-] [Au3, [Au(HL3^FPh)2]Cl]	28.8	173.9 ± 0.087	0.17	194.9 ± 0.063	0.15					
Cc1ccc(S(=O)(=O)NNC(Nc2ccc([N+](=O)[O-])cc2)=[S][Au+][S]=C(NNS(=O)(=O)c2ccc(C)cc2)Nc2ccc([N+](=O)[O-])cc2)cc1.[Cl-] [Au5, [Au(HL5^NO2Ph)2]Cl]	58.6	295.5 ± 0.259	0.198	284 ± 0.259	0.21					
C=CCNC(NNS(=O)(=O)c1ccc(C)cc1)=[S][Au+][S]=C(NCC=C)NNS(=O)(=O)c1ccc(C)cc1.[Cl-] [Au6, [Au(HL6^Al)2]Cl]	77.5	62.54 ± 0.151	1.24	5554 ± 1.37	0.01		not soluble in the buffer used for the experiment			
Cc1ccc(S(=O)(=O)NNC(=S)Nc2ccc(Cl)cc2)cc1 [HL4^ClPh, N-(4-chlorophenyl)-2-tosylhydrazinocarbothioamide]			0.16		0.13			16.8	108.4 ± 0.104	133.8 ± 0.036
C=CCNC(=S)NNS(=O)(=O)c1ccc(C)cc1 [HL6^Al, N-allyl-2-tosylhydrazinocarbothioamide]			0.23		0.60		not soluble in the buffer used for the experiment	188	812.8 ± 0.515	313.5 ± 0.063
